Values after ≈ are worked out from the molar mass of the structure shown. Where two headings read alike, the source gives them in different places. Some results are limits rather than exact numbers.

For assay [1], the system named is Pseudomonas aeruginosa (ATCC27853). The assay can be described thus: microbe, parasite or virus in culture. It counts as cell-based. The conditions noted are these: read-out: MIC P. aeruginosa ATCC 27853.
Another assay concerns S. aureus ATCC 29213. The assay can be described thus: MIC, S. aureus ATCC 29213 + 50% HS. The conditions noted are these: Staphylococcus aureus, ATCC29213. It is filed as cell-based.
Assay [2] has as its system P. aeruginosa NTUH-974 (MDR). Description: MIC, P. aeruginosa NTUH-974 (MDR). It is filed as cell-based.
In assay [3] the test system is Enterococcus faecalis (ATCC29212). Description: MIC, broth microdilution (CLSI), Enterococcus faecalis ATCC29212. It counts as cell-based. To be noted: read-out: MIC E. faecalis ATCC 29212. Background: Dilution methods test growth across graded concentrations, often in twofold steps.
A further assay deals with E. faecium ATCC 700221. The assay can be described thus: MIC, E. faecium ATCC 700221. It is filed as cell-based. The conditions noted are these: Enterococcus faecium, ATCC700221; read-out: MIC E. faecium ATCC 700221.
In assay [4] the test system is Escherichia coli (ATCC25922). The assay can be described thus: MIC, broth microdilution (CLSI), Escherichia coli ATCC25922.
Procedure: (§1) Initial minimal inhibitory concentration (MIC) tests were made on two bacterial strains: • Escherichia coli (ATCC25922) • Staphylococcus aureus (ATCC25923).
Minimal Inhibitory Concentration (MIC)
(§2) MIC values were determined using the standard broth microdilution procedure based on the guidelines by the Clinical and Laboratory Standards Institute (CLSI). Briefly, the compounds were dissolved in DMSO to 10 mM. They were diluted in cation-adjusted Mueller-Hinton broth (CAMHB) to four times the highest concentration tested. A serial 2-fold dilution in CAMHB was done in microdilution plates. The inoculum of bacterial strain to be tested was prepared by making a suspension of colonies from an 18 to 24 hours old plate in CAMHB. The inoculum was diluted so that, after inoculation, each well contained approximately 5×10^5 CFU/mL. To a volume of 50 μl compound in CAMHB an equal volume of inoculum was added. The tray was sealed in a plastic bag and incubated at 35° C. for 16 to 20 hours. To aid in the detection of growth the dye resazurin was added to a final concentration 0.001% and incubated at room temperature for 1 h. Reduction of resazurin, and therefore bacterial growth, was seen as a change from blue to pink.
Assay [5] deals with Staphylococcus aureus (ATCC25923). The assay can be described thus: MIC, broth microdilution (CLSI), Staphylococcus aureus ATCC25923. To be noted: ATCC25923, read-out: S. aureus ("Clinical") MIC.
Procedure: as §1
Minimal Inhibitory Concentration (MIC)
as §2
For another assay, the system named is E. coli JW5503. Description: MIC, E. coli JW5503. The conditions noted are these: Escherichia coli, JW5503, read-out: MIC E. coli JW5503. It is filed as cell-based.
Assay [6] has as its system E. coli RNase P RNA, M1 RNA. The assay can be described thus: Inhibition of bacterial RNase P activity, IC50 determination (cleavage of pATSerUG by M1 RNA). It is filed as biochemical. To be noted: NI = No inhibition.
The test system of assay [7] is S. aureus MRSA ATCC 33591. The assay can be described thus: MIC, S. aureus MRSA ATCC 33591. It is filed as cell-based. The conditions noted are these: Staphylococcus aureus; read-out: MIC S. aureus MRSA ATCC 33591.
Another assay concerns N. gonorrhoeae 612501. The assay can be described thus: MIC, N. gonorrhoeae 612501. To be noted: Neisseria gonorrhoeae. It is filed as cell-based.
Another assay has as its system H. influenzae ATCC 49247. Description: MIC, H. influenzae ATCC 49247. It counts as cell-based. The conditions noted are these: Haemophilus influenzae, ATCC49247.
A further assay deals with K. pneumoniae ATCC 43816. The assay can be described thus: MIC, K. pneumoniae ATCC 43816. It counts as cell-based. The conditions noted are these: Klebsiella pneumoniae, ATCC43816.
Another assay relates to S. pneumoniae ATCC 49619. The assay can be described thus: MIC, S. pneumoniae ATCC 49619. It counts as cell-based. To be noted: Streptococcus pneumoniae, ATCC49619.
Another assay has as its system A. baumannii ATCC 17978. Description: MIC, A. baumannii ATCC 17978. The conditions noted are these: Acinetobacter baumannii, ATCC17978. It is filed as cell-based.
Assay [8] deals with Staphylococcus aureus subsp. aureus (ATCC29213). Description: MIC, broth microdilution (CLSI), Staphylococcus aureus subsp. aureus ATCC29213. It counts as cell-based.
Where [9] appears, read: Pseudomonas aeruginosa, read-out: MIC P. aeruginosa NTUH-974 (MDR).
Setting [10] is: ATCC25922, read-out: E. coli MIC, Table 15, NI = No inhibition.
The mark [11] stands for this setting: ATCC25922, read-out: MIC E. coli ATCC 25922, Table 16.
The mark [12] stands for this setting: ATCC29213, Table 15, read-out: S. aureus ("wound") (MIC).
The mark [13] stands for this setting: ATCC29213, Table 16, read-out: MIC S. aureus ATCC 29213.

In general, IC50 refers to the concentration that inhibits the measured activity by half. A low value points to inhibition by little substance. Turning to `NC1CCCC(CNc2cc(C(F)(F)F)cc3c2Nc2ccccc2S3)C1` (centres unmarked) [compound 133, N-((3-Aminocyclohexyl)methyl)-3-(trifluoromethyl)-10H-phenothiazin-1-amine], the MIC in assay [1] came to 128 µg/mL (≈ 325 µM); in the assay with S. aureus ATCC 29213, 128 µg/mL; in [2] (setting [9]), 128 µg/mL (≈ 325 µM); in assay [3], 8 µg/mL (≈ 20.3 µM); in the assay with E. faecium ATCC 700221 it was 4 µg/mL (≈ 10.2 µM); in assay [4] (setting [10]), 13 µg/mL (≈ 33 µM). The MIC in assay [4] (setting [11]) was 32 µg/mL (≈ 81.3 µM); in assay [5], 3 µg/mL (≈ 7.62 µM); with E. coli JW5503, 8 µg/mL (≈ 20.3 µM); in assay [7], 4 µg/mL (≈ 10.2 µM); with N. gonorrhoeae 612501 it was 2 µg/mL (≈ 5.08 µM); against H. influenzae ATCC 49247, 16 µg/mL (≈ 40.7 µM). Also, the MIC amounted to 32 µg/mL (≈ 81.3 µM) against K. pneumoniae ATCC 43816; 32 µg/mL (≈ 81.3 µM) against S. pneumoniae ATCC 49619; 16 µg/mL (≈ 40.7 µM) against A. baumannii ATCC 17978; 81 µg/mL (≈ 206 µM) in [8] (setting [12]); 4 µg/mL (≈ 10.2 µM) in assay [8] (setting [13]). 19 µM corresponded to half-maximal inhibition in assay [6] (IC50).

For `NCCCN1c2ccccc2Sc2cc(-c3cc4ccccc4[nH]3)ccc21` [compound 150, 3-(3-(1H-Indol-2-yl)-10H-phenothiazin-10-yl)propan-1-amine], the MIC in [1] is more than 128 µg/mL; in the assay on S. aureus ATCC 29213, 64 µg/mL; in assay [2] (setting [9]) it was more than 128 µg/mL; in assay [3], 2 µg/mL (≈ 5.38 µM); in the assay with E. faecium ATCC 700221 it was 2 µg/mL (≈ 5.38 µM); in [4] (setting [10]), 12 µg/mL (≈ 32.3 µM). Also, the MIC came to 16 µg/mL (≈ 43.1 µM) in assay [4] (setting [11]); 1 µg/mL (≈ 2.69 µM) in [5]; 4 µg/mL (≈ 10.8 µM) in the assay with E. coli JW5503; 2 µg/mL (≈ 5.38 µM) in [7]; 2 µg/mL (≈ 5.38 µM) in the assay with N. gonorrhoeae 612501; 8 µg/mL (≈ 21.5 µM) against H. influenzae ATCC 49247. Moreover, the MIC turned out to be 16 µg/mL (≈ 43.1 µM) in the assay on K. pneumoniae ATCC 43816, 8 µg/mL (≈ 21.5 µM) in the assay with S. pneumoniae ATCC 49619, 16 µg/mL (≈ 43.1 µM) in the assay with A. baumannii ATCC 17978 and 2 µg/mL (≈ 5.38 µM) in assay [8] (setting [13]). Besides, inhibition in assay [6] was half-maximal at 14 µM (IC50).

Take `CN(C)CCCN1c2ccccc2Sc2cc(-c3cc4cc(C#N)ccc4[nH]3)ccc21` [compound 123, 2-(10-(3-(dimethylamino)propyl)-10H-phenothiazin-3-yl)-1H-indole-5-carbonitrile]: the MIC in assay [1] was more than 128 µg/mL; in the assay with S. aureus ATCC 29213, 64 µg/mL; in [2] (setting [9]) it was more than 128 µg/mL; in assay [3], 2 µg/mL (≈ 4.71 µM); in the assay with E. faecium ATCC 700221, 2 µg/mL (≈ 4.71 µM); in assay [4] (setting [10]), more than 100 µg/mL. Further, the MIC was more than 128 µg/mL in [4] (ATCC25922, read-out: MIC E. coli ATCC 25922); 2 µg/mL (≈ 4.71 µM) in assay [5]; 4 µg/mL (≈ 9.42 µM) with E. coli JW5503; 8 µg/mL (≈ 18.8 µM) in assay [7]; 1 µg/mL (≈ 2.36 µM) in the assay with N. gonorrhoeae 612501; 16 µg/mL (≈ 37.7 µM) against H. influenzae ATCC 49247. The MIC in the assay on K. pneumoniae ATCC 43816 is more than 128 µg/mL; against S. pneumoniae ATCC 49619, 8 µg/mL (≈ 18.8 µM); against A. baumannii ATCC 17978, 64 µg/mL (≈ 151 µM); in assay [8] (setting [12]), 2 µg/mL (≈ 4.71 µM); in [8] (setting [13]) it was 2 µg/mL (≈ 4.71 µM). Besides, in assay [6], the IC50 was more than 100 µM.

For `NCCN1CCC(Nc2cc(C(F)(F)F)cc3c2Nc2ccccc2S3)CC1` [compound 140, N-(1-(2-Aminoethyl)piperidin-4-yl)-3-(trifluoromethyl)-10H-phenothiazin-1-amine], the MIC was determined as 64 µg/mL (≈ 157 µM) in assay [1]; 128 µg/mL with S. aureus ATCC 29213; 32 µg/mL (≈ 78.3 µM) in assay [2] (Pseudomonas aeruginosa; read-out: MIC P. aeruginosa NTUH-974 (MDR)); 4 µg/mL (≈ 9.79 µM) in assay [3]; 4 µg/mL (≈ 9.79 µM) in the assay with E. faecium ATCC 700221; 7 µg/mL (≈ 17.1 µM) in [4] (setting [10]). Also, the MIC in assay [4] (setting [11]) worked out at 32 µg/mL (≈ 78.3 µM); in [5], 3 µg/mL (≈ 7.34 µM); with E. coli JW5503, 8 µg/mL (≈ 19.6 µM); in assay [7], 4 µg/mL (≈ 9.79 µM); with N. gonorrhoeae 612501, 2 µg/mL (≈ 4.9 µM); in the assay on H. influenzae ATCC 49247, 8 µg/mL (≈ 19.6 µM). Moreover, the MIC with K. pneumoniae ATCC 43816 amounted to 8 µg/mL (≈ 19.6 µM); with S. pneumoniae ATCC 49619, 32 µg/mL (≈ 78.3 µM); against A. baumannii ATCC 17978, 8 µg/mL (≈ 19.6 µM); in assay [8] (setting [12]) it was 8 µg/mL (≈ 19.6 µM); in [8] (setting [13]), 4 µg/mL (≈ 9.79 µM). This compound also returned an IC50 in assay [6] of 8 µM.

For the origin of these results see patent publication US11130741B2 (Bioimics AB, priority 2016, dated 2021).
